The record followed here is patent publication US11597706B2, “Compounds and compositions for treating conditions associated with NLRP activity” (Novartis AG, priority 2016, dated 2023).

What is called IC50 is the concentration needed to halve the response being measured.

SMILES strings stand for the structures. Where only a bound is given, the exact number is not on record here.

T1 sequence (Q96P20 whole entry): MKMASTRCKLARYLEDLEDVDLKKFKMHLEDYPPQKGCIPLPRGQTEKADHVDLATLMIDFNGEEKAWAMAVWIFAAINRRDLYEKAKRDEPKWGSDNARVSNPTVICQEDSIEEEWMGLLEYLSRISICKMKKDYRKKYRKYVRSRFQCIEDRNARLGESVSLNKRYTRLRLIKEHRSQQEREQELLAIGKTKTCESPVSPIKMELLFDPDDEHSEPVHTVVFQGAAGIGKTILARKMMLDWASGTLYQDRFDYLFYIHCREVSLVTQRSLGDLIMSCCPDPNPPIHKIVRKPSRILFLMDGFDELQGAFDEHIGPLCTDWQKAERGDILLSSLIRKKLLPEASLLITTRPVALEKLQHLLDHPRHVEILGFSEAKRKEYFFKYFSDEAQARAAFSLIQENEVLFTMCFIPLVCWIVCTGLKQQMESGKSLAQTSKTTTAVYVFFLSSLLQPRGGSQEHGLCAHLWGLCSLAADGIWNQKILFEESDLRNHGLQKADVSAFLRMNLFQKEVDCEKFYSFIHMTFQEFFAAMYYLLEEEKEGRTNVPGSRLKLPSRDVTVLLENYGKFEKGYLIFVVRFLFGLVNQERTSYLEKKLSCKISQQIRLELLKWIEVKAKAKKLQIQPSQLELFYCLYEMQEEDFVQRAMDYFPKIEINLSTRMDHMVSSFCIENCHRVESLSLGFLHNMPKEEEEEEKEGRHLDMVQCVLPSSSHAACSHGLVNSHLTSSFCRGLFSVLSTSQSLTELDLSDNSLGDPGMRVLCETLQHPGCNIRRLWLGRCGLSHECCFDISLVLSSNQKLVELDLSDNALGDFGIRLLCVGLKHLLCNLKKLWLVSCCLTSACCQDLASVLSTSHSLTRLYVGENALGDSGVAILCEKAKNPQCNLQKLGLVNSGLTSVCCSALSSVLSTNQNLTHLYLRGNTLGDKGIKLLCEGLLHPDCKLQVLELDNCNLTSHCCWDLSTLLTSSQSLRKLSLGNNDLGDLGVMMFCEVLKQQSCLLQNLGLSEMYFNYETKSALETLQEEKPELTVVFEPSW

One assay concerns the target T1, hNLRP3 (THP-1, IL-1β) (Homo sapiens, UniProt Q96P20).
T1 construct: THP-1 cells were purchased from the American Type Culture Collection; host or cells: THP-1 cells, PMA-differentiated, stimulated with gramicidin
The assay can be described thus: IL-1β production in PMA-differentiated THP-1 cells stimulated with gramicidin. The format is cell-based. To be noted: Table 1, gramicidin 5 μM, IL-1β readout. Here is the method: IL-1β Production in PMA-Differentiated THP-1 Cells Stimulated With Gramicidin.
Cell culture-THP-1 cells were purchased from the American Type Culture Collection and sub-cultured according to instructions from the supplier. Prior to experiments, cells were cultured in RPMI 1640 containing 10% heat inactivated FBS, penicillin (100 units/ml) and streptomycin (100 μg/ml), and maintained in log phase prior to experimental setup. Prior to the experiment THP-1 were treated with PMA (Phorbol 12-myristate 13-acetate) (10 μg/ml) for 24 hours. The day of the experiment the media was removed and attaching cells were treated with trypsin for 2 minutes, cells were then collected, washed with PBS (phosphate buffer saline), spin down, resuspended in 2% heat inactivated FBS with RPMI at a concentration of 1×10^6 cells/ml, and 100 μl was plated in a 96 well plate. Cells were incubated with compounds for 1 hours and then stimulated with Gramicidin (5 μM) (Enzo) for 2 hours. Cell free supernatant was collected and the production of IL-1β was evaluated by ELISA. Compounds were dissolved in dimethyl sulfoxide (DMSO) and added to the culture medium to achieve desired concentration (e.g. 100, 30, 10, 3, 1, 0.3 or 0.1 μM). A vehicle only control was run concurrently with each experiment. Final DMSO concentration was 1%.
THP-1 cells were purchased from the American Type Culture Collection and sub-cultured according to instructions from the supplier. Prior to experiments, cells were cultured in complete RPMI 1640 (containing 10% heat inactivated FBS, penicillin (100 units/ml) and streptomycin (100 μg/ml)), and maintained in log phase prior to experimental setup. Prior to the experiment THP-1 were treated with PMA (Phorbol 12-myristate 13-acetate) (20 ng/ml) for 16-18 hours. On the day of the experiment the media was removed and adherent cells were detached with trypsin for 5 minutes. Cells were then harvested, washed with complete RPMI 1640, spun down, resuspended in RPMI 1640 (containing 2% heat inactivated FBS, penicillin (100 units/ml) and streptomycin (100 μg/ml). The cells were plated in a 384-well plate at a density of 50,000 cells/well (final assay volume 50 μl). Compounds were dissolved in dimethyl sulfoxide (DMSO) and added to the culture medium to achieve desired concentration (e.g. 100, 33, 11, 3.7, 1.2, 0.41, 0.14, 0.046, 0.015, 0.0051, 0.0017 μM). Cells were incubated with compounds for 1 hour and then stimulated with gramicidin (5 μM) (Enzo) for 2 hours. Cell free supernatant was collected and the production of IL-1β was evaluated by HTRF (cisbio). A vehicle only control was run concurrently with each experiment. Final DMSO concentration was 0.38%.
Take `CC(C)c1cc(F)cc(C(C)C)c1NC(=O)NS(=O)(=O)c1cc(F)cc(C(C)(C)O)c1` [Compound 127, 3-fluoro-N-(4-fluoro-2,6-diisopropylphenylcarbamoyl)-5-(2-hydroxypropan-2-yl)benzenesulfonamide]: the IC50 was < 1000 nM.

`CC(C)(O)c1ccc(F)c(S(=O)(=O)NC(=O)Nc2c3c(cc4c2CCC4)CCC3)c1` [Compound 131, 1-[[2-fluoro-5-(2-hydroxypropan-2-yl)benzene]sulfonyl]-3-(1,2,3,5,6,7-hexahydro-s-indacen-4-yl)urea]: the IC50 was < 1000 nM.

`CC(C)c1cc(C#N)cc(C(C)C)c1NC(=O)NS(=O)(=O)c1cc(C#N)cc(C(C)(C)O)c1` [Compound 116, 3-cyano-N-(4-cyano-2,6-diisopropylphenylcarbamoyl)-5-(2-hydroxypropan-2-yl)benzenesulfonamide]: the IC50 was < 1000 nM.

Turning to `CC(C)(O)c1cc(C#N)cc(S(=O)(=O)NC(=O)Nc2c3c(c(Cl)c4c2CCC4)CCC3)c1` [Compound 110, N-(8-chloro-1,2,3,5,6,7-hexahydros-indacen-4-ylcarbamoyl)-3-cyano-5-(2-hydroxypropan-2-yl)benzenesulfonamide], the IC50 was < 1000 nM.

As to `CC(C)c1cc(F)cc(C(C)C)c1NC(=O)NS(=O)(=O)c1cc(Cl)cc(C(C)(C)O)c1` [Compound 123, 3-chloro-N-(4-fluoro-2,6-diisopropylphenylcarbamoyl)-5-(2-hydroxypropan-2-yl)benzenesulfonamide], the IC50 was < 1000 nM.

`CC(C)(O)c1cc(Cl)cc(S(=O)(=O)NC(=O)Nc2c3c(c(F)c4c2CCC4)CCC3)c1` [Compound 113, 3-chloro-N-(8-fluoro-1,2,3,5,6,7-hexahydros-indacen-4-ylcarbamoyl)-5-(2-hydroxypropan-2-yl)benzenesulfonamide]: the IC50 is < 1000 nM.

On to `CC(C)c1cc(F)cc(C(C)C)c1NC(=O)NS(=O)(=O)c1cc(C#N)cc(C(C)(C)O)c1` [Compound 117, 3-cyano-N-(4-fluoro-2,6-diisopropylphenylcarbamoyl)-5-(2-hydroxypropan-2-yl)benzenesulfonamide], for which the IC50 is < 1000 nM.

Still in this assay, the particulars now being: Table 2, gramicidin 5 μM, IL-1β readout.
`CC(C)c1ccc(F)c(C(C)C)c1NC(=O)NS(=O)(=O)c1cc(C#N)cc(C(C)(C)O)c1` [Compound 148, 3-cyano-N-(3-fluoro-2,6-diisopropylphenylcarbamoyl)-5-(2-hydroxypropan-2-yl)benzenesulfonamide] yielded an IC50 of 1000 to 5000 nM.

`CC(C)(O)c1cc(N2CCOCC2)cc(S(=O)(=O)NC(=O)Nc2c3c(cc4c2CCC4)CCC3)c1` [Compound 146]: the IC50 was < 1000 nM.

`CC(C)c1cccc(C(C)C)c1NC(=O)NS(=O)(=O)c1ccc(C(C)(C)O)cc1` [Compound 169, N-(2,6-diisopropylphenylcarbamoyl)-4-(2-hydroxypropan-2-yl)benzenesulfonamide] registered a half-inhibitory concentration (IC50) of 1000 to 5000 nM.

In turn, `CC(C)c1cc(C#N)cc(C(C)C)c1NC(=O)NS(=O)(=O)c1ccc(C(C)(C)O)cc1` [Compound 168, N-(4-cyano-2,6-diisopropylphenylcarbamoyl)-4-(2-hydroxypropan-2-yl)benzenesulfonamide] showed a half-inhibitory concentration (IC50) of 1000 to 5000 nM.

Consider `CC(C)(O)c1cc(C(C)(C)O)cc(S(=O)(=O)NC(=O)Nc2c3c(cc4c2CCC4)CCC3)c1` [Compound 143], for which the 50% inhibitory concentration (IC50) was < 1000 nM.

With `COC(=O)c1ccc(F)c(S(=O)(=O)NC(=O)Nc2c(C(C)C)cc(Cl)cc2C(C)C)c1` [Compound 171, methyl 3-(N-(4-chloro-2,6-diisopropylphenylcarbamoyl)sulfamoyl)-4-fluorobenzoate], the IC50 was in the range of 1000 to 5000 nM.

For `CC(C)c1cc(C#N)cc(C(C)C)c1NC(=O)NS(=O)(=O)c1cccc(C(C)(C)O)c1` [Compound 147, N-(4-cyano-2,6-diisopropylphenylcarbamoyl)-3-(2-hydroxypropan-2-yl)benzenesulfonamide], the IC50 was < 1000 nM.

With `CC(C)(O)c1ccc(S(=O)(=O)NC(=O)Nc2c3c(c(F)c4c2CCC4)CCC3)cc1` [Compound 160, N-(8-fluoro-1,2,3,5,6,7-hexahydro-sindacen-4-ylcarbamoyl)-4-(2-hydroxypropan-2-yl)benzenesulfonamide], the IC50 was < 1000 nM.

Take `CC(C)(O)c1ccc(S(=O)(=O)NC(=O)Nc2c3c(cc4c2CCC4)CCC3)cn1` [Compound 166, N-(1,2,3,5,6,7-hexahydros-indacen-4-ylcarbamoyl)-6-(2-hydroxypropan-2-yl)pyridine-3-sulfonamide]: the IC50 is < 1000 nM.

In the case of `CC(C)(O)c1ccc(S(=O)(=O)NC(=O)Nc2c3c(c(C#N)c4c2CCC4)CCC3)cc1` [Compound 164, N-(8-cyano-1,2,3,5,6,7-hexahydro-sindacen-4-ylcarbamoyl)-4-(2-hydroxypropan-2-yl)benzenesulfonamide], the IC50 was < 1000 nM.

`CC(C)(O)c1cc(C#N)cc(S(=O)(=O)NC(=O)Nc2c3c(cc4c2CCC4)CCC3)c1` [Compound 142]: the IC50 was < 1000 nM.

Regarding `CC(C)c1ccc(F)c(C(C)C)c1NC(=O)NS(=O)(=O)c1cc(Cl)cc(C(C)(C)O)c1` [Compound 137, 3-chloro-N-(3-fluoro-2,6-diisopropylphenylcarbamoyl)-5-(2-hydroxypropan-2-yl)benzenesulfonamide], the IC50 is < 1000 nM.

Turning to `CC(C)c1ccc(F)c(C(C)C)c1NC(=O)NS(=O)(=O)c1cc(C(C)(C)O)cc(C(C)(C)O)c1` [Compound 155, N-(3-fluoro-2,6-diisopropylphenylcarbamoyl)-3,5-bis(2-hydroxypropan-2-yl)benzenesulfonamide], the concentration for half-maximal inhibition (IC50) was 1000 to 5000 nM.

With `CC(C)(O)c1ccc(S(=O)(=O)NC(=O)Nc2c3c(cc4c2CCC4)CCC3)cc1` [Compound 167, N-(1,2,3,5,6,7-hexahydros-indacen-4-ylcarbamoyl)-4-(2-hydroxypropan-2-yl)benzenesulfonamide], the IC50 was < 1000 nM.

In the case of `CC(C)c1ccc(F)c(C(C)C)c1NC(=O)NS(=O)(=O)c1cc(N2CCOCC2)cc(C(C)(C)O)c1` [Compound 157, N-(3-fluoro-2,6-diisopropylphenylcarbamoyl)-3-(2-hydroxypropan-2-yl)-5-morpholinobenzenesulfonamide], the IC50 lay within 1000 to 5000 nM.

Regarding `CC(C)(O)c1ccc(S(=O)(=O)NC(=O)Nc2c3c(cc4c2CCC4)CCC3)cc1CO` [Compound 163, N-(1,2,3,5,6,7-hexahydro-sindacen-4-ylcarbamoyl)-3-(hydroxymethyl)-4-(2-hydroxypropan-2-yl)benzenesulfonamide], the IC50 was < 1000 nM.

For `CC(C)c1cc(Cl)cc(C(C)C)c1NC(=O)NS(=O)(=O)c1ccc(C(C)(C)O)cc1` [Compound 162, N-(4-chloro-2,6-diisopropylphenylcarbamoyl)-4-(2-hydroxypropan-2-yl)benzenesulfonamide], the IC50 was < 1000 nM.

For `CC(C)c1cc(Cl)cc(C(C)C)c1NC(=O)NS(=O)(=O)c1cc(F)cc(C(C)(C)O)c1` [Compound 150, N-(4-chloro-2,6-diisopropylphenylcarbamoyl)-3-fluoro-5-(2-hydroxypropan-2-yl)benzenesulfonamide], the IC50 was 1000 to 5000 nM.

Regarding `CC(C)c1ccc(F)c(C(C)C)c1NC(=O)NS(=O)(=O)c1cc(-c2ccccc2)cc(C(C)(C)O)c1` [Compound 153, N-(3-fluoro-2,6-diisopropylphenylcarbamoyl)-5-(2-hydroxypropan-2-yl)biphenyl-3-sulfonamide], the IC50 was in the range of 1000 to 5000 nM.

`CC(C)c1cc(C#N)cc(C(C)C)c1NC(=O)NS(=O)(=O)c1cc(Cl)cc(C(C)(C)O)c1` [Compound 138, 3-chloro-N-(4-cyano-2,6-diisopropylphenylcarbamoyl)-5-(2-hydroxypropan-2-yl)benzenesulfonamide]: the IC50 was < 1000 nM.

Turning to `CC(C)(O)c1ccc(S(=O)(=O)NC(=O)Nc2c3c(c(Cl)c4c2CCC4)CCC3)cc1` [Compound 161, N-(8-chloro-1,2,3,5,6,7-hexahydro-sindacen-4-ylcarbamoyl)-4-(2-hydroxypropan-2-yl)benzenesulfonamide], the IC50 is < 1000 nM.

Take `CC(C)(O)c1cc(-c2ccccc2)cc(S(=O)(=O)NC(=O)Nc2c3c(cc4c2CCC4)CCC3)c1` [Compound 151, N-(1,2,3,5,6,7-hexahydro-sindacen-4-ylcarbamoyl)-5-(2-hydroxypropan-2-yl)biphenyl-3-sulfonamide]: the IC50 lay in the range of 1000 to 5000 nM.
